Several values for one entry are separate records, joined by “and”; a condition that tells them apart may be missing. Equal entries are not always repeated. Toxic doses and inconclusive results are not listed.
System: BDF1 mice, P388 leukemia ip, median survival T/C
Experiment: NCI In Vivo Anticancer Drug Screen. Data for tumor model P388 Leukemia (intraperitoneal) in B6D2F1 (BDF1) mice
Details: endpoint: median survival time, higher = longer survival
In short: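 Steps: implant the tumour, treat one group with compound and another with vehicle, record survival, then divide treated by control.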

[1] = dose: 25.0 mg/kg/injection, schedule: Q01DX009 (ip), vehicle: saline with Tween-80
[2] = dose: 50.0 mg/kg/injection, schedule: Q01DX009 (ip), vehicle: saline with Tween-80
[3] = dose: 100.0 mg/kg/injection, schedule: Q01DX009 (ip), vehicle: saline with Tween-80
[4] = dose: 100.0 mg/kg/injection, schedule: Q04DX003 (ip), vehicle: saline with Tween-80
[5] = dose: 200.0 mg/kg/injection, schedule: Q04DX003 (ip), vehicle: saline with Tween-80
[6] = dose: 400.0 mg/kg/injection, schedule: Q04DX003 (ip), vehicle: saline with Tween-80
[7] = dose: 200.0 mg/kg/injection, schedule: Q01DX009 (ip), vehicle: saline with Tween-80
[8] = dose: 50.0 mg/kg/injection, schedule: Q01DX009 (ip), vehicle: Klucel (hydroxypropylcellulose) (HPC)
[9] = dose: 100.0 mg/kg/injection, schedule: Q01DX009 (ip), vehicle: Klucel (hydroxypropylcellulose) (HPC)
[10] = dose: 100.0 mg/kg/injection, schedule: Q04DX003 (ip), vehicle: saline
[11] = dose: 200.0 mg/kg/injection, schedule: Q04DX003 (ip), vehicle: saline
[12] = dose: 12.5 mg/kg/injection, schedule: Q01DX009 (ip), vehicle: saline with Tween-80
[13] = dose: 75.0 mg/kg/injection, schedule: Q01DX009 (ip), vehicle: Klucel (hydroxypropylcellulose) (HPC)
[14] = dose: 150.0 mg/kg/injection, schedule: Q01DX009 (ip), vehicle: Klucel (hydroxypropylcellulose) (HPC)
[15] = dose: 25.0 mg/kg/injection, schedule: Q04DX003 (ip), vehicle: saline with Tween-80

For `C=CCN(CC=C)P(=O)(N1CC1)N1CC1C` (configuration not stated), the T/C (dose: 0.25 mg/kg/injection, schedule: Q04DX003 (ip), vehicle: saline) was 120 % of control, the T/C (dose: 0.31 mg/kg/injection, schedule: Q01DX009 (ip), vehicle: saline) was 100 % of control and the T/C (dose: 0.5 mg/kg/injection, schedule: Q01DX009 (ip), vehicle: saline) was 156 % of control and 158 % of control. For the same compound, the T/C (dose: 0.83 mg/kg/injection, schedule: Q01DX009 (ip), vehicle: saline) was 150 % of control and 166 % of control and 173 % of control, the T/C (dose: 1.65 mg/kg/injection, schedule: Q04DX003 (ip), vehicle: saline) was 159 % of control and the T/C (dose: 1.8 mg/kg/injection, schedule: Q01DX009 (ip), vehicle: saline) was 91 % of control. The T/C (dose: 2.5 mg/kg/injection, schedule: Q04DX003 (ip), vehicle: saline) was 163 % of control and 190 % of control, the T/C (dose: 3.75 mg/kg/injection, schedule: Q04DX003 (ip), vehicle: saline) was 163 % of control and the T/C (dose: 5.0 mg/kg/injection, schedule: Q04DX003 (ip), vehicle: saline) was 90 % of control.
For `N/C(=N\[N+](=O)[O-])N(CCCCl)N=O`, the T/C [1] was 103 % of control, the T/C (dose: 27.0 mg/kg/injection, schedule: Q01DX009 (ip), vehicle: Klucel (hydroxypropylcellulose) (HPC)) was 152 % of control and the T/C (dose: 33.0 mg/kg/injection, schedule: Q01DX009 (ip), vehicle: saline with Tween-80) was 108 % of control. The T/C (dose: 37.5 mg/kg/injection, schedule: Q04DX003 (ip), vehicle: saline sonified) was 100 % of control, the T/C (dose: 40.0 mg/kg/injection, schedule: Q01DX009 (ip), vehicle: Klucel (hydroxypropylcellulose) (HPC)) was 157 % of control and the T/C [2] was 107 % of control. The T/C (dose: 60.0 mg/kg/injection, schedule: Q01DX009 (ip), vehicle: Klucel (hydroxypropylcellulose) (HPC)) was 166 % of control, the T/C (dose: 75.0 mg/kg/injection, schedule: Q04DX003 (ip), vehicle: saline sonified) was 100 % of control and the T/C [3] was 120 % of control. The T/C [4] was 109 % of control, the T/C (dose: 112.5 mg/kg/injection, schedule: Q01DX009 (ip), vehicle: saline with Tween-80) was 154 % of control and the T/C (dose: 150.0 mg/kg/injection, schedule: Q04DX003 (ip), vehicle: saline sonified) was 100 % of control. For the same compound, the T/C (dose: 176.0 mg/kg/injection, schedule: Q04DX003 (ip), vehicle: saline sonified) was 100 % of control and the T/C [5] was 122 % of control.
With `CCOC(=O)c1cnc(=O)[nH]c1N` the T/C [2] was 99 % of control.
For `CC1(C2CC(=O)c3c(O)ccc(O)c3C2)OCCO1` (configuration not stated), the T/C (dose: 25.0 mg/kg/injection, schedule: Q01DX009 (ip), vehicle: other) was 107 % of control, the T/C (dose: 50.0 mg/kg/injection, schedule: Q01DX009 (ip), vehicle: other) was 100 % of control and the T/C (dose: 100.0 mg/kg/injection, schedule: Q01DX009 (ip), vehicle: other) was 98 % of control. The T/C (dose: 200.0 mg/kg/injection, schedule: Q01DX009 (ip), vehicle: other) was 98 % of control and the T/C (dose: 400.0 mg/kg/injection, schedule: Q01DX009 (ip), vehicle: other) was 116 % of control.
`NC1=C(Cl)C(=O)C(Cl)=C(Cl)C1=O` was tested, and the T/C (dose: 0.39 mg/kg/injection, schedule: Q01DX009 (ip), vehicle: saline) was 102 % of control, the T/C (dose: 0.78 mg/kg/injection, schedule: Q01DX009 (ip), vehicle: saline) was 98 % of control and the T/C (dose: 1.56 mg/kg/injection, schedule: Q01DX009 (ip), vehicle: saline) was 99 % of control.
With `C[C@]12CCC(=O)C=C1CC[C@@H]1[C@@H]2[C@@H](O)C[C@@]2(C)[C@H]1CC[C@]2(O)C(=O)COC(=O)c1ccc([N+](=O)[O-])cc1Cl` the T/C [4] was 100 % of control, the T/C [5] was 107 % of control and the T/C [6] was 103 % of control.
With `CC(Br)C(=O)NC(C)C(=O)O` (configuration not stated) the T/C [4] was 100 % of control, the T/C [5] was 109 % of control and the T/C [6] was 118 % of control.
For `CC(C)CCN(CCC(C)C)CC(O)c1cc(-c2ccc(C(F)(F)F)cc2)nc(-c2ccc(C(F)(F)F)cc2)c1` (configuration not stated), the T/C [2] was 113 % of control, the T/C [3] was 106 % of control and the T/C [7] was 113 % of control.
For `O=C(NC(=O)c1c(F)cccc1F)Nc1ccc(Br)cn1`, the T/C [1] was 99 % of control, the T/C [2] was 92 % of control and the T/C [3] was 92 % of control.
In the case of `ClC1(Cl)OC(Cl)(Cl)C(Cl)(Cl)OC1(Cl)Cl`, the T/C [8] is reported as 95 % of control, the T/C [9] is reported as 95 % of control and the T/C (dose: 200.0 mg/kg/injection, schedule: Q01DX009 (ip), vehicle: Klucel (hydroxypropylcellulose) (HPC)) is reported as 109 % of control.
`CC1=C(Br)C(=O)C(c2c(C)cc(C)cc2C)=C(Br)C1=O` was tested, and the T/C (dose: 6.25 mg/kg/injection, schedule: Q01DX009 (ip), vehicle: saline) was 86 % of control, the T/C (dose: 12.5 mg/kg/injection, schedule: Q01DX009 (ip), vehicle: saline) was 93 % of control and the T/C (dose: 12.5 mg/kg/injection, schedule: Q04DX003 (ip), vehicle: saline) was 104 % of control. For the same compound, the T/C (dose: 25.0 mg/kg/injection, schedule: Q04DX003 (ip), vehicle: saline) was 95 % of control, the T/C (dose: 50.0 mg/kg/injection, schedule: Q04DX003 (ip), vehicle: saline) was 105 % of control and the T/C [10] was 97 % of control. The T/C [11] was 95 % of control.
With `CCCCNC(C)(C)C(=O)c1ccco1` the T/C [4] was 86 % of control and the T/C [5] was 100 % of control.
`CC(=O)OCCCC/C(=C/c1cc2ccccc2c2ccccc12)[N+](=O)[O-]` was tested, and the T/C [8] was 100 % of control and the T/C [9] was 100 % of control.
`O=C(Nc1cccc(Cl)c1Cl)SCCSC(=O)Nc1cccc(Cl)c1Cl` was tested, and the T/C (dose: 12.5 mg/kg/injection, schedule: Q01DX009 (ip), vehicle: gum acacia) was 118 % of control, the T/C (dose: 25.0 mg/kg/injection, schedule: Q01DX009 (ip), vehicle: gum acacia) was 100 % of control and the T/C (dose: 50.0 mg/kg/injection, schedule: Q01DX009 (ip), vehicle: gum acacia) was 118 % of control.
With `C/C=C/C(=O)NCC(C(C)C)/[N+]([O-])=N/O` (configuration not stated) the T/C (dose: 6.25 mg/kg/injection, schedule: Q01DX009 (ip), vehicle: saline with Tween-80) was 104 % of control, the T/C [12] was 116 % of control and the T/C [1] was 87 % of control.
`O=C1NC(O)CCN1C1OC(CO)C(O)C1O` (configuration not stated) was tested, and the T/C (dose: 50.0 mg/kg/injection, schedule: Q01DX009 (ip), vehicle: saline) was 89 % of control, the T/C (dose: 100.0 mg/kg/injection, schedule: Q01DX009 (ip), vehicle: saline) was 100 % of control and 113 % of control and the T/C [10] was 116 % of control. For the same compound, the T/C (dose: 200.0 mg/kg/injection, schedule: Q01DX009 (ip), vehicle: saline) was 101 % of control and 104 % of control, the T/C [11] was 108 % of control and the T/C (dose: 400.0 mg/kg/injection, schedule: Q01DX009 (ip), vehicle: saline) was 100 % of control and 117 % of control. For the same compound, the T/C (dose: 400.0 mg/kg/injection, schedule: Q04DX003 (ip), vehicle: saline) was 95 % of control.
In the case of `CC(C)(C)CC(Cl)Cl`, the T/C [13] is reported as 100 % of control, the T/C (dose: 100.0 mg/kg/injection, schedule: Q04DX003 (ip), vehicle: Klucel (hydroxypropylcellulose) (HPC)) is reported as 100 % of control and the T/C [14] is reported as 100 % of control. For the same compound, the T/C (dose: 200.0 mg/kg/injection, schedule: Q04DX003 (ip), vehicle: Klucel (hydroxypropylcellulose) (HPC)) was 100 % of control and the T/C (dose: 400.0 mg/kg/injection, schedule: Q04DX003 (ip), vehicle: Klucel (hydroxypropylcellulose) (HPC)) was 107 % of control.
For `C=CC(=O)NC1CCCCC1`, the T/C (dose: 50.0 mg/kg/injection, schedule: Q04DX003 (ip), vehicle: Klucel (hydroxypropylcellulose) (HPC)) was 90 % of control, the T/C (dose: 75.0 mg/kg/injection, schedule: Q04DX003 (ip), vehicle: Klucel (hydroxypropylcellulose) (HPC)) was 104 % of control and the T/C (dose: 150.0 mg/kg/injection, schedule: Q04DX003 (ip), vehicle: Klucel (hydroxypropylcellulose) (HPC)) was 104 % of control.
For `COc1cc2c(cc1OC)-c1cc3cc(OC)c(OC)cc3c(CCC(=O)O)[n+]1CC2`, the T/C [13] was 101 % of control and the T/C [14] was 101 % of control.
`CCCCCCC(c1c(O)cc(C)[nH]c1=O)c1c(O)cc(C)[nH]c1=O` was tested, and the T/C [2] was 96 % of control, the T/C [3] was 96 % of control and the T/C [7] was 90 % of control.
For `C[S+](C)N(c1ccccc1)C(C)(C)C`, the T/C (dose: 12.5 mg/kg/injection, schedule: Q04DX003 (ip), vehicle: saline with Tween-80) was 99 % of control, the T/C [15] was 104 % of control and the T/C (dose: 50.0 mg/kg/injection, schedule: Q04DX003 (ip), vehicle: saline with Tween-80) was 89 % of control.
`Cn1nc(-c2ccccc2)nc1[N+](=O)[O-]` was tested, and the T/C [12] was 114 % of control, the T/C [1] was 97 % of control and the T/C [2] was 93 % of control. For the same compound, the T/C [3] was 99 % of control.
With `NC(=S)N/N=C\c1nccc2c(C(F)(F)F)cccc12` the T/C [15] was 106 % of control.
For `COc1cc(/C=C(/C)[N+](=O)[O-])cc(Br)c1OC`, the T/C [4] was 117 % of control.
With `CCCCC#CC(=O)OC` the T/C [1] was 116 % of control, the T/C [2] was 104 % of control and the T/C [3] was 100 % of control. The T/C [7] was 114 % of control.

— PubChem BioAssay AID328 (DTP/NCI, 2004)
